Among the data in ChEMBL document CHEMBL1139210, “9,19-cyclolanostane derivatives from the roots of Actaea pachypoda” (J Nat Prod, 2007) are IC50 and Activity values, retold here.

As a reminder, the IC50 is the concentration that gives 50% inhibition.

Activity calls are given as the source filed them. No cut-off for these calls is given here.

The nature of data set [1]: (§1) Inhibition of activation of human complement.
In data set [2] the test system is Vero. The data set can be described thus: Cytotoxicity against Vero cells upto 25 ug/mL by neutral red assay. It counts as cell-based. Conditions: chlorocebus sabaeus.
The subject of data set [3] is LLC-PK1. The data set can be described thus: Cytotoxicity against LLC-PK1 cells upto 25 ug/mL by neutral red assay. It counts as cell-based, Sus scrofa. Conditions: pig.
Data set [4] concerns SK-MEL. The data set can be described thus: Cytotoxicity against SK-MEL cells upto 25 ug/mL by neutral red assay. It counts as cell-based. Conditions: human.
Data set [5] concerns KB. The data set can be described thus: Cytotoxicity against KB cells upto 25 ug/mL by neutral red assay. It counts as cell-based. Conditions: human.
Data set [6] relates to BT-549. Nature of the data set: Cytotoxicity against BT549 cells upto 25 ug/mL by neutral red assay. Format: cell-based. Conditions: human.
In data set [7] the test system is SK-OV-3. Nature of the data set: Cytotoxicity against SKOV3 cells upto 25 ug/mL by neutral red assay. It counts as cell-based. Conditions: human.
In data set [8] the target is T1, Estrogen receptor (Homo sapiens) (UniProt P03372).
T1 sequence (whole entry): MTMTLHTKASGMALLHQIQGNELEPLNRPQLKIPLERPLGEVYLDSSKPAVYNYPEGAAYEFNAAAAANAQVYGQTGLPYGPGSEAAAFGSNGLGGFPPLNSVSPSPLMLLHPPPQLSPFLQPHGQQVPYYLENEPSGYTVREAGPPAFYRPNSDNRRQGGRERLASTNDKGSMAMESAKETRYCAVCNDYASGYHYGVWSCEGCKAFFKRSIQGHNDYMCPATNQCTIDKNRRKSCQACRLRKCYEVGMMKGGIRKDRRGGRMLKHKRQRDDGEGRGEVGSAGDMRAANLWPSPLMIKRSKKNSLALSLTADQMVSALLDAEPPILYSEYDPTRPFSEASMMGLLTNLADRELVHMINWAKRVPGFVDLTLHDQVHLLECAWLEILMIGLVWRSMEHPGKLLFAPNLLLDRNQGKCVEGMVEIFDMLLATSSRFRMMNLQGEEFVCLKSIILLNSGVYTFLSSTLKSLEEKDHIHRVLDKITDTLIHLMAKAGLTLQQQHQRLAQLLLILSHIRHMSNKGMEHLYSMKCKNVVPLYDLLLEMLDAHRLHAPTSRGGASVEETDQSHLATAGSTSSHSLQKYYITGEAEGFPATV
Nature of the data set: Activity against human ERalpha expressed in recombinant yeast cells upto 500 ug/mL. Format: cell-based.

Data set [9] concerns HL-60. The data set can be described thus: Antioxidant activity in HL60 cells by DCFH-DA method upto 20ug/mL. Format: functional, cell-based. Conditions: Homo sapiens.
For data set [10], the species on record is Homo sapiens. The description is as §1.

In the case of `C[C@H]1[C@H](C)CC[C@]2(C(=O)O)CC[C@]3(C)C(=CC[C@@H]4[C@@]5(C)CC[C@H](O)C(C)(C)[C@@H]5CC[C@]43C)[C@H]12` [URSOLIC ACID], in data set [1], the concentration for half-maximal inhibition (IC50) amounted to 55 µM.
For the compound `CC(=O)O[C@H](C[C@@H](C)[C@H]1C(=O)[C@H](O)[C@@]2(C)[C@@H]3CC[C@H]4C(C)(C)[C@@H](O[C@@H]5OC[C@@H](O)[C@H](O)[C@H]5O)CC[C@@]45C[C@@]35CC[C@]12C)[C@H]1OC1(C)C`, the Activity result in [2], in data set [3], in data set [4], in data set [5], in data set [6] and in [7] was “Not Active” each time. Also, the result in data set [8], in data set [9] and in data set [10] was inactive.
Regarding `CC(=O)O[C@@H]1C[C@@]23C[C@@]24CC[C@H](O[C@@H]2OC[C@@H](O)[C@H](O)[C@H]2O)C(C)(C)[C@@H]4CC[C@H]3[C@]2(C)C[C@@H]3O[C@@]4(C[C@@H](C)[C@@H]3[C@@]12C)OC[C@]1(C)O[C@H]41`, the Activity entry in [2], in [3], in [4], in [5], in [6] and in [7] was “Not Active” throughout. The outcome in data set [8], in data set [9] and in data set [10] was inactive.
Regarding `C[C@@H]1C[C@H]2O[C@@]3(O[C@@H]2C(C)(C)O)[C@H](O)[C@@]2(C)[C@@H]4CC[C@H]5C(C)(C)[C@@H](O[C@@H]6OC[C@@H](O)[C@H](O)[C@H]6O)CC[C@@]56C[C@@]46CC[C@]2(C)[C@@H]13`, the Activity result in data set [2], in [3], in data set [4], in [5], in data set [6] and in [7] was “Not Active” each time. Besides, the outcome in data set [8], in data set [9] and in data set [10] was inactive.
Take `CC1(C)CC[C@]2(C(=O)O)CC[C@]3(C)C(=CC[C@@H]4[C@@]5(C)CC[C@H](O)C(C)(C)[C@@H]5CC[C@]43C)[C@@H]2C1` [OLEANOLIC_ACID]: it took 78 µM to reach half-maximal inhibition in [1] (IC50).
Take `CC(=O)O[C@@H]1C[C@@]23C[C@@]24CC[C@H](O)C(C)(C)[C@@H]4CC[C@H]3[C@]2(C)[C@@H](O)[C@]34O[C@H](C[C@@H](C)[C@@H]3[C@@]12C)[C@@H](C(C)(C)O)O4`: the Activity entry in [2], in data set [3], in data set [4], in data set [5], in [6] and in [7] was “Not Active” in each case. Further, the outcome in data set [8] and in data set [9] was inactive. The compound also showed an IC50 in data set [1] of 187 µM.
`CC(=O)O[C@@H]1C[C@@]23C[C@@]24CC[C@H](O[C@@H]2OC[C@@H](O)[C@H](O)[C@H]2O)C(C)(C)[C@@H]4CC=C3[C@]2(C)C[C@@H]3O[C@@]4(O[C@H]4C(C)(C)O)[C@H](O)[C@@H](C)[C@@H]3[C@@]12C`: the Activity result in data set [2], in data set [3], in [4], in [5], in [6] and in data set [7] was “Not Active” throughout. The outcome in data set [8], in data set [9] and in data set [10] was inactive.
For the compound `CC(=O)O[C@@H]1C[C@@]23C[C@@]24CC[C@H](O[C@@H]2OC[C@@H](O)[C@H](O)[C@H]2O)C(C)(C)[C@@H]4CC[C@H]3[C@]2(C)[C@@H](O)[C@]34O[C@H](C[C@@H](C)[C@@H]3[C@@]12C)[C@@H](C(C)(C)O)O4`, the Activity entry in data set [2], in data set [3], in data set [4], in [5], in [6] and in data set [7] was “Not Active” throughout. Moreover, the result in data set [8], in [9] and in data set [10] was inactive.
Take `CC(=O)O[C@@H]1C[C@@]23C[C@@]24CC[C@H](O[C@@H]2OC[C@@H](O)[C@H](O)[C@H]2O)C(C)(C)[C@@H]4CCC3[C@]2(C)C[C@@H]3O[C@@]4(O[C@H]4C(C)(C)O)[C@H](O)[C@@H](C)[C@@H]3[C@@]12C` (some centres undefined): the Activity entry in data set [2], in data set [3], in [4], in data set [5], in data set [6] and in data set [7] was “Not Active” throughout. In addition, the outcome in data set [8], in data set [9] and in [10] was inactive.
Take `C[C@H]1[C@H]2[C@H](C[C@@]3(C)C4=CC[C@H]5C(C)(C)[C@@H](O[C@@H]6OC[C@@H](O)[C@H](O)[C@H]6O)CC[C@@]56C[C@@]46CC[C@]23C)O[C@@]2(O[C@H]2C(C)(C)O)[C@@H]1O`: the Activity result in [2], in data set [3], in data set [4], in data set [5], in data set [6] and in data set [7] was “Not Active” in each case. The outcome in [8], in data set [9] and in [10] was inactive.
